Laboratory results from PMC11597202, “Novel Thiazole-Fused [4,5-g] or [5,4-g]Quinazolin-8-ones and Their Quinazoline Analogues: Synthesis and Biological Evaluation” (Pharmaceuticals, 2024).

What was measured:
CK-1ε = molecular target: T1, CK-1ε (Homo sapiens, UniProt P49674); assay: ADP-Glo kinase inhibition assay, CK-1ε; type: biochemical; settings: percentage of maximum activity of the DMSO control, mean n = 2, 10 µM ATP, read-out: Residual activity CK-1ε; for remaining activity at 1 µM: 1 μM compound; for remaining activity at 10 µM: 10 μM compound
T1 construct: host or cells: Sf9 insect cells (baculovirus)
Description: Kinase enzymatic activities were assayed in 384-well plates using the ADP-Glo^TM assay kit (Promega, Madison, WI, USA) according to the recommendations of the manufacturer. This luminescent ADP detection assay was described by Zegzouti and co-workers and provides a homogeneous and high-throughput screening method to measure kinase activity by quantifying the amount of ADP produced during a kinase reaction. Briefly, the reactions were carried out in a final volume of 6 µL for 30 min at 30 °C in an appropriate kinase buffer (10 mM MgCl2, 1 mM EGTA, 1 mM DTT, 25 mM Tris-HCl pH 7.5, 50 µg/mL heparin), with peptide or protein as substrate in the presence of 10 µM ATP. Peptide substrates were obtained from ProteoGenix (Schiltigheim, France) or Sigma for Histone H1, Poly (L-glutamic acid–L-tyrosine) sodium salt, Casein and MBP. After that, 6 µL of ADP-Glo^TM Kinase Reagent was added to stop the kinase reaction. After an incubation time of 50 min at room temperature (rt), 12 µL of Kinase Detection Reagent was added for one hour at rt. The transmitted signal was measured using the Envision (PerkinElmer, Waltham, MA, USA) microplate luminometer and expressed as Relative Light Units (RLUs). Kinase activities are expressed as percentages of remaining kinase activities detected after treatment with 1 or 10 µM of the tested compounds. The maximum kinase activity was measured in the absence of inhibitor but with an equivalent dose of DMSO (solvent of the tested compounds).
3. Kinase inhibition assays
Kinase enzymatic activities were assayed in 384-well plates using the ADP-GloTM assay kit (Promega, Madison, WI) according to the recommendations of the manufacturer. This luminescent ADP detection assay was described by Zegzouti and co-workers and provides a homogeneous and high-throughput screening method to measure kinase activity by quantifying the amount of ADP produced during a kinase reaction. Briefly, the reactions were carried out in a final volume of 6 µl for 30 min at 30°C in appropriate kinase buffer (10 mM MgCl2, 1 mM EGTA, 1 mM DTT, 25 mM Tris-HCl pH 7.5, 50 µg/mL heparin), with peptide or protein as substrate in the presence of 10 µM ATP. Peptide substrates were obtained from ProteoGenix (Schiltigheim, France) or Sigma for Histone H1, Poly (L-glutamic acid – L-tyrosine) sodium salt, Casein and MBP. After that, 6 µL of ADP-GloTM Kinase Reagent was added to stop the kinase reaction. After an incubation time of 50 min at room temperature (rt), 12 µL of Kinase Detection Reagent was added for 1 h at rt. The transmitted signal was measured using the Envision (PerkinElmer, Waltham, MA) microplate luminometer and expressed in Relative Light Unit (RLU). Kinase activities are expressed in percentages of remaining kinase activities detected after treatment with 1 or 10 µM of the tested compounds. The maximal kinase activity is measured in the absence of inhibitor but with an equivalent dose of DMSO (solvent of the tested compounds).
Table. Human protein kinases tested in the panel: CDK9, HASPIN, PIM1, GSK3b, CK1ε, JAK3, CLK1 […]
1 Peptide substrates were obtained from ProteoGenix (Schiltigheim, France) or Sigma for Histone H1, Poly (L-glutamic acid – L-tyrosine) sodium salt, Casein and MBP; 2 “Sp” stands for phosphorylated serine.
Controls inhibitors: To validate each kinase assay, the following model inhibitors were used under the same conditions than the tested compounds: Staurosporine from Streptomyces sp.

[1] = In vitro cytotoxic assay, Huh7-D12; type: cell-based; settings: human, Huh7-D12 cells (liver cancer cell line)
Description: Skin normal fibroblastic cells were purchased from Lonza (Basel, Switzerland). […] All culture media were supplemented by 10% of FBS, 1% of penicillin–streptomycin and 2 mM glutamine.
Chemicals were solubilized in DMSO at a concentration of 10 mM (stock solution) and diluted in culture medium to the desired final concentrations. […] Cells were plated in 96-well plates (4000 cells/well). Twenty-four hours after seeding, the cells were exposed to chemicals. […] Image acquisition and analysis were performed using a Cellomics ArrayScan VTI/HCS Reader (ThermoScientific, Les Ulis, France). The survival percentages were calculated as the percentage of cell number after compound treatment over cell number after DMSO treatment. The relative IC50 values were calculated using the curve fitting XLfit 5.5.0.5 (idbs) integrated in Microsoft Excel as an add-on.
4.3.1. Cell culture. Skin normal fibroblastic cells are purchased from Lonza (Basel, Switzerland). Huh7- […]
from ATCC (American Type Culture Collection). […]
supplemented by 10% of FBS, 1% of penicillin-streptomycin and 2 mM glutamine.
4.3.2. Cytotoxic assay. Chemicals were solubilized in DMSO at a concentration of 10 mM (stock solution) and diluted in culture medium to the desired final concentrations. The dose effect cytotoxic assays (IC50 determination) were performed by increasing the concentrations of each chemical (final well […]
Cells were plated in 96-well plates
(4000 cells/well). Twenty-four hours after seeding, cells were exposed to chemicals. After 48h of treatment, cells were washed in PBS and fixed in cooled 90% ethanol/5% acetic acid for 20 min and the […]
Image acquisition and analysis were performed using a Cellomics ArrayScan VTI/HCS Reader (ThermoScientific). The survival percentages were calculated as the percentage of cell number after compound treatment over cell number after DMSO treatment. The relative IC50 were calculated using the curve fitting XLfit 5.5.0.5 (idbs) integrated in Microsoft Excel as an add-on. The 4 Parameter Logistic Model or Sigmoidal Dose-Response Model describing the sigmoid-shaped response pattern was used (fit = (A+[(B-A)/(1+[(C/x)^D])]) where fit is the response and X is the tested concentration of the compound. The lower asymptote is A (also referred to as the bottom of the curve or lower plateau or the min) and the upper asymptote is B (also referred to as the top of the curve or upper plateau or the max). The slope of the linear part of the curve is described by the factor D. The parameter C is the concentration corresponding to the response midway between A and B. C is called “relative IC50” because it refers to the maximum response obtained by a […]
The results are represented as the mean ± standard error (SE) calculated from at least three independent experiments.

T1 sequence (P49674 whole entry): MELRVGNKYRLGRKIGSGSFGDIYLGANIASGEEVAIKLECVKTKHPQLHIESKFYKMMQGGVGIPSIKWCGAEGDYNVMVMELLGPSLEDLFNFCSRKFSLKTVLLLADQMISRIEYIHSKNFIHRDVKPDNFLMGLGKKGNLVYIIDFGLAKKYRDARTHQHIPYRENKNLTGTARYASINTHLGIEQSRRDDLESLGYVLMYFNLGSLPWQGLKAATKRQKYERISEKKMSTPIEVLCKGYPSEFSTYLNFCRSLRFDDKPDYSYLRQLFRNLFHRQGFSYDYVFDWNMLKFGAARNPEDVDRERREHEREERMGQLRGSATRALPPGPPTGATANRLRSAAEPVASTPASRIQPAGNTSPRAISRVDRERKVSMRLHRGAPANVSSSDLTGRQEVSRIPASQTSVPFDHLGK

| remaining activity at 1 µM (CK-1ε) | remaining activity at 10 µM (CK-1ε) | SMILES | IC50 at 48 h [1] |
| --- | --- | --- | --- |
| 92% | 70% | COC(=N)c1nc2ccc3ncn(Cc4ccccc4)c(=O)c3c2s1 [Compound I, methyl 8-benzyl-9-oxo-8,9-dihydrothiazolo[5,4-f]quinazoline-2-carbimidate, reference compound] | 15 µM |
| 100% | 69% | COC(=N)c1nc2cc3c(=O)n(Cc4ccccc4)cnc3cc2s1 [Compound 6a, Methyl 7-benzyl-8-oxo-7,8-dihydrothiazolo[4,5-g]quinazoline-2-carbimidate] | > 25 µM |
| 111% | 103% | COC(=N)c1nc2cc3ncn(Cc4ccccc4)c(=O)c3cc2s1 [Compound 6b, Methyl 7-benzyl-8-oxo-7,8-dihydrothiazolo[5,4-g]quinazoline-2-carbimidate] | 1 µM |
|  |  | COC(=N)c1nc2ccc3ncnc(Nc4ccc(OC)cc4F)c3c2s1 [Compound II, methyl 9-[(2-fluoro-4-methoxyphenyl)amino]thiazolo[5,4-f]quinazoline-2-carbimidate, reference compound] | 5 µM |
| 98% | 108% | COC(=N)c1nc2cc3ncnc(Nc4ccc(OC)cc4F)c3cc2s1 [Compound 15b, Methyl 8-[(2-fluoro-4-methoxyphenyl)amino]thiazolo[5,4-g]quinazoline-2-carbimidate] |  |
| 92% | 98% | COC(=N)c1nc2ccc3c(=O)n(Cc4ccccc4)cnc3c2s1 [Compound 6d, Methyl 7-benzyl-6-oxo-6,7-dihydrothiazolo[4,5-h]quinazoline-2-carbimidate] | 9 µM |
| 112% | 87% | COC(=N)c1nc2c(ccc3c(=O)n(Cc4ccccc4)cnc32)s1 [Compound 6c, Methyl 7-benzyl-6-oxo-6,7-dihydrothiazolo[5,4-h]quinazoline-2-carbimidate] | 10 µM |
| 95% | 72% | COC(=N)c1nc2cc3c(Nc4ccc(OC)cc4F)ncnc3cc2s1 [Compound 15a, Methyl 8-[(2-fluoro-4-methoxyphenyl)amino]thiazolo[4,5-g]quinazoline-2-carbimidate] | 8 µM |
